Entries after “also recorded” stand apart in the source; their conditions may differ.

Assay [1] has as its system peptide-pulsed C1R-A11 cells. As to the kind of experiment: IFN-gamma ELISPOT assay of peptide-induced CTLs (HLA-A*1101). Format: cell-based, human. The conditions noted are these: CTLs induced from HLA-A*1101-positive donors, peptide-pulsed C1R-A11 vs control. An excerpt:
Monocyte-derived dendritic cells (DCs) were used as the antigen-presenting cell to induce a cytotoxic T lymphocyte (CTL) response against peptides presented on human leukocyte antigens (HLAs). As described in the other sections, DCs were generated in vitro (Nakahara S et al., Cancer Res 2003, 63(14): 4112-8). Specifically, peripheral-blood mononuclear cells isolated from healthy volunteers (HLA-A*1101-positive) with the Ficoll-Paque plus solution (Pharmacia) were separated by attaching to plastic tissue culture dishes (Becton Dickinson) and concentrated as a monocyte fraction. The monocyte-concentrated population was cultured in the presence of 1000 IU/ml granulocyte macrophage colony-stimulating factor (R&D System) and 1000 IU/ml interleukin(IL)-4 (R&D System) in an AIM-V medium (Invitrogen) containing 2% heat-inactivated autologous serum (AS). After seven days of culturing, the cytokine-induced DCs were pulsed with 20 micro-g/ml each of the synthesized peptides in an AIM-V medium at 37 degrees C. for three hours in the presence of 3 micro-g/ml beta 2-microglobulin. The generated cells appeared to express on their cell surface DC-associated molecules such as CD80, CD83, CD86 and HLA class II (data not shown). Next, these peptide-pulsed DCs were inactivated by X-ray irradiation (20 Gy), and mixed in a 1:20 ratio with autologous CD8^+ T cells obtained by positive selection using the CD8 Positive Isolation Kit (Dynal). These culture products were seeded in a 48-well plate (Corning). Each well was made to contain 1.5×10^4 peptide-pulsed DCs, 3×10^5 CD8^+ T cells and 10 ng/ml IL-7 (R&D System) in 0.5 ml of the AIM-V/2% AS medium. Three days later, these culture products were added with a final concentration of 20 IU/ml IL-2 (CHIRON). On day 7 and day 14, T cells were further stimulated with peptide-pulsed autologous DCs. The DCs were prepared every time by the same method as above. On day 21, after the third peptide stimulation, CTLs were examined against the peptide-pulsed C1R-A11 cells by a human interferon (IFN)-gamma enzyme-linked immunospot (ELISPOT) assay (Tanaka H et al., Br J Cancer 2001, 84(1): 94-9; Umano Y et al., Br J Cancer 2001, 84(8): 1052-7; Uchida N et al., Clin Cancer Res 2004, 10(24): 8577-86; Suda T et al., Cancer Sci 2006, 97(5): 411-9; Watanabe T et al., Cancer Sci 2005, 96(8): 498-506).
(§1) Specifically, peptide-pulsed C1R-A11 (1×10^4 cells/well) was prepared as the stimulator cell. The induced CTLs, i.e., CTL lines and CTL clones, were used as the responder cell. The IFN-gamma ELISPOT assay and IFN-gamma ELISA were performed according to the manufacturer's manual.

For another assay, the system named is peptide-pulsed C1R-A11. As to the kind of experiment: IFN-gamma ELISA of CTL lines and CTL clones (HLA-A*1101). Format: cell-based, human. The conditions noted are these: for IFN-gamma production of CTL lines: peptide-pulsed vs non-pulsed target cells, HLA-A*1101. On the procedure:
CTLs were propagated in culture using methods similar to those disclosed by Riddell et al. (Walter E A et al., N Engl J Med 1995, 333(16): 1038-44; Riddell S R et al., Nat Med 1996, 2(2): 216-23). The CTLs were co-cultured in a total of 25 ml AIM-V medium containing 5% AS (AIM-V/5% AS) and 40 ng/ml anti-CD3 antibody with two types of Mitomycin C-treated human B lymphoblastoid cell lines at 5×10^6 cells/flask. One day after beginning of the culturing, 120 IU/ml IL-2 was added to the culture. On days 5, 8 and 11, a fresh AIM-V/5% AS medium containing 30 IU/ml IL-2 was added to the culture (Tanaka H et al., Br J Cancer 2001, 84(1): 94-9; Umano Y et al., Br J Cancer 2001, 84(8): 1052-7; Uchida N et al., Clin Cancer Res 2004, 10(24): 8577-86; Suda T et al., Cancer Sci 2006, 97(5): 411-9; Watanabe T et al., Cancer Sci 2005, 96(8): 498-506).
Dilution of CTLs was carried out to make 0.3, 1 and 3 cells/well in 96 round-bottomed microtiter plates (Nalge Nunc International). The CTLs were co-cultured with two types of Mitomycin C-treated human B lymphoblastoid cell lines at 1×10^4 cells/well in a total of 150 micro-l/well AIM-V/5% AS medium with 30 ng/ml anti-CD3 antibody and 125 IU/ml IL-2. Ten days later, IL-2 was added to the medium at 50 micro-l/well to reach a final concentration of 125 IU/ml. On day 14, the CTL activity was tested, and the CTL clones were propagated using the same method as described above (Uchida N et al., Clin Cancer Res 2004, 10(24): 8577-86; Suda T et al., Cancer Sci 2006, 97(5): 411-9; Watanabe T et al., Cancer Sci 2005, 96(8): 498-506).
as §1
(In general: In an ELISA, binding on a coated surface is turned into a signal by an enzyme label.)

Take “SFKRLMIVKK (a peptide derived from CDCA1) [SEQ ID NO: 53]”: in assay [1] (listed as CDCA1-A11-10-340), the “peptide-specific CTL activity (IFN-gamma production)” value (from here on “peptide-specific CTL activity”) was “potent IFN-gamma production; also recorded: significant specific CTL activity”. For “VTTINQEIQK (a peptide derived from CDCA1) [SEQ ID NO: 33]”, the “peptide-specific CTL activity” value was “no specific IFN-gamma production” in assay [1] (listed as CDCA1-A1-10-391) and “specific IFN-gamma production was not observed” in assay [1] (listed as CDCA1-A11-10-391). “IVLQEGNSQK (a peptide derived from CDCA1) [SEQ ID NO: 40]”: the “peptide-specific CTL activity” value in assay [1] (listed as CDCA1-A11-10-203) was “potent IFN-gamma production; also recorded: significant specific CTL activity”.

Take “TAELKRKMFK (a peptide derived from CDCA1) [SEQ ID NO: 35]”: in assay [1] (listed as CDCA1-A11-10-452), the “peptide-specific CTL activity” value is on record as “potent IFN-gamma production; also recorded: significant specific CTL activity”. Regarding “TADILCPKAK (a peptide derived from CDCA1) [SEQ ID NO: 56]”, the “peptide-specific CTL activity” value is “significant specific CTL activity” in assay [1] (listed as CDCA1-A1-10-106) and “potent IFN-gamma production” in assay [1] (listed as CDCA1-A11-10-106). As to “IVDSPEKLK (a peptide derived from CDCA1) [SEQ ID NO: 14]”, the “peptide-specific CTL activity” value in assay [1] (listed as CDCA1-A11-9-244) is on record as “potent IFN-gamma production; also recorded: significant specific CTL activity”. With “SQEIFLNLK (a peptide derived from CDCA1) [SEQ ID NO: 6]”, in assay [1] (listed as CDCA1-A11-9-419), the “peptide-specific CTL activity” value was “potent IFN-gamma production; also recorded: significant specific CTL activity”. In addition, in the assay on peptide-pulsed C1R-A11 (CTL clones by limiting dilution, peptide-pulsed C1R-A11, listed as CDCA1-A11-9-419), the “IFN-gamma production of CTL clones” value is reported as “Potent IFN-gamma production”. Besides, in the assay with peptide-pulsed C1R-A11, the “IFN-gamma production of CTL lines” value is “potent IFN-gamma production”. On to “KINKKHEDVK (a peptide derived from CDCA1) [SEQ ID NO: 58]”, for which the “peptide-specific CTL activity” value in assay [1] (listed as CDCA1-A1-10-358) is listed as “potent IFN-gamma production”; in assay [1] (listed as CDCA1-A11-10-358) it was “significant specific CTL activity”; in assay [1] (listed as CDCA1A11-10-358), “potent IFN-gamma production”. For the same sequence, the “IFN-gamma production of CTL lines” value in the assay on peptide-pulsed C1R-A11 is “potent IFN-gamma production”. Take “NAAHQEALMK (a peptide derived from CDCA1) [SEQ ID NO: 45]”: the entries for the “peptide-specific CTL activity” value in assay [1] (listed as CDCA1-A1-10-156) and in assay [1] (listed as CDCA1-A11-10-156) were “significant specific CTL activity” and “potent IFN-gamma production”, respectively. For the sequence “CQLEVQLYQK (a peptide derived from CDCA1) [SEQ ID NO: 39]”, the “peptide-specific CTL activity” value is listed as “potent IFN-gamma production; also recorded: significant specific CTL activity” in assay [1] (listed as CDCA1-A11-10-289) and “potent IFN-gamma production” in assay [1] (listed as CDCA1A11-10-289). For the sequence “KSNISEKTK (a peptide derived from CDCA1) [SEQ ID NO: 17]”, the “peptide-specific CTL activity” value in assay [1] (listed as CDCA1-A11-9-213) is given as “potent IFN-gamma production; also recorded: significant specific CTL activity”. With “NSFKRLMIVK (a peptide derived from CDCA1) [SEQ ID NO: 30]”, in assay [1] (listed as CDCA1-A11-10-339), the “peptide-specific CTL activity” value was “potent IFN-gamma production; also recorded: significant specific CTL activity”. Moreover, in the assay with peptide-pulsed C1R-A11, the “IFN-gamma production of CTL lines” value is “potent IFN-gamma production”.

As to “AAHQEALMK (a peptide derived from CDCA1) [SEQ ID NO: 13]”, the “peptide-specific CTL activity” value in assay [1] (listed as CDCA1-A1-9-157) is on record as “potent IFN-gamma production”; in assay [1] (listed as CDCA1-A11-9-157) it was “potent IFN-gamma production; also recorded: significant specific CTL activity”. For the same sequence, in the assay with peptide-pulsed C1R-A11, the “IFN-gamma production of CTL lines” value is recorded as “potent IFN-gamma production”. In the case of “KILTGADGK (a peptide derived from CDCA1) [SEQ ID NO: 12]”, the “peptide-specific CTL activity” value in assay [1] (listed as CDCA1-A1-9-21) is “potent IFN-gamma production”; in assay [1] (listed as CDCA1-A11-9-21), “potent IFN-gamma production; also recorded: significant specific CTL activity”. Take “KAAEDSYAK (a peptide derived from CDCA1) [SEQ ID NO: 9]”: in assay [1] (listed as CDCA1-A11-9-439), the “peptide-specific CTL activity” value is given as “potent IFN-gamma production; also recorded: significant specific CTL activity”. The “IFN-gamma production of CTL lines” value in the assay with peptide-pulsed C1R-A11 is reported as “potent IFN-gamma production”. Take “KTEENSFKR (a peptide derived from CDCA1) [SEQ ID NO: 19]”: the results for the “peptide-specific CTL activity” value in assay [1] (listed as CDCA1-A1-9-335) and in assay [1] (listed as CDCA1-A11-9-335) were “potent IFN-gamma production” and “potent IFN-gamma production; also recorded: significant specific CTL activity”, respectively.

The record behind these values is patent publication US10676514B2, “CDCA1-derived peptide and vaccine containing same” (ONCOTHERAPY SCIENCE, INC., priority 2014, dated 2020).
